{
  "source": "patent US4925868A",
  "about": "“4-Hydroxy-3-pyrrolin-2-ones and treatment of circulatory disorders therewith” (Takeda Chemical Industries, Ltd., priority 1986, dated 1990)",
  "key": {"[1]": {"tested_on": "lipid peroxide formation in rat brain tissue homogenate", "experiment": "Activity to inhibit lipid peroxide formation in rat brain tissue homogenate (TBA method)", "assay_type": "biochemical, rat (male SD)", "settings": "10^-5 M; n = 3, mean; 5% brain homogenate, pH 7.4, 37° C., 1 hour", "description": "Activity to inhibit lipid peroxide formation in rat brain tissue homogenate: Male SD rats (12-week-old) were subjected to exsanguination under anesthesia with pentobarbital, then the brain was excised. The brain tissue was homogenized in a phosphate buffer (pH 7.4) to prepare a 5% homogenate. After incubation of the homogenate at 37° C. for 1 hour, the amount of lipid peroxides formed therein was determined by the thiobarbituric acid (TBA) method in accordance with the report of Ohkawa et al. on Analytical Biochemistry, 95, 351, (1979). The test drug was added to the 5% homogenate before incubation so as to make the final concentration to be 10^-5 M. The activity to inhibit the formation of lipid peroxide was judged by comparing the amount of the lipid peroxide in the treated group with that of the reference group to which was added the solvent (DMSO), and shown by % inhibition."}, "[2]": {"tested_on": "mice", "experiment": "Acute toxicity in mice", "assay_type": "in vivo", "settings": "for sedation and ptosis: six mice per group", "description": "Male Crj-ICR mice (4-week-old, 21 to 26 g) were used. The animals, divided into groups, each consisting of six mice, were administered orally with compounds (4-b, 4-1) at the dosages of 300 and 1000 mg/kg, respectively. Then, each group was housed in a cage and observed for 24 hours.\nThe test drugs were suspended in gum arabic and administered at a volume of 0.1 ml/10 g."}, "[3]": {"tested_on": "rat hearts", "experiment": "Activity to inhibit occurrence of ventricular arrhythmia during coronary artery occlusion-reperfusion in rat hearts", "assay_type": "in vivo, rat (male SD)", "set-up": "Ventricular fibrillation, incidence / Ventricular tachycardia, incidence: unit not given here", "settings": "for Ventricular fibrillation, incidence / Ventricular tachycardia, incidence: (10 min.) after reperfusion; for Ventricular fibrillation, incidence / Ventricular tachycardia, incidence / Ventricular fibrillation, duration / Ventricular tachycardia, duration: average ±SEM; for Mortality: killed animals/test animals; for mortality due to VF (in words) / occurrence of arrhythmia (in words) / period of time during which arrhythmia lasted (in words) / frequency of occasional PVCs (in words): 10 mg/kg; for frequency of occasional PVCs (in words): vs vehicle around 10 times/minute; for effect on arrhythmia (in words): oral", "text": "Activity to inhibit occurrence of ventricular arrhythmia during coronary artery occlusion-reperfusion in rat hearts\nMale SD rats (9- to 13-week old, 250 to 370 g) were used. The animals were subjected to thoractonomy under artificial respiration while anesthesia was maintained by administering pentobarbital. […] By recording standard limb lead II electrocardiograms, occurrence of ventricular arrhythmia was examined. […]\nIncidences of ventricular fibrillation and ventricular tachycardia are shown by the percentage of the number of animals presenting the symptoms relative to the number of animals subjected to the test, and the duration of the symptoms was shown by average ±SEM in seconds. Extrasystole is shown by the number of systole/min., and the mortality is shown by the percentage of the number of killed animals relative to the number of test animals."}},
  "data": [
    {"compound": "CCCCCCCCCCCCCCOc1ccc(C2=C(O)CN(C)C2=O)cc1", "note": "[Compound 4-a]", "values": [
      {"measurement": "Inhibition rate of lipid peroxide formation", "setting": "[1]", "result": 97.9, "unit": "%"}
    ]},
    {"compound": "CCCCCCCCCCCCOc1ccc(C2=C(O)CN(C)C2=O)cc1", "note": "[Compound 4-b, N-methyl-3-(4-dodecyloxyphenyl)-4-hydroxy-3-pyrrolin-2-one]", "values": [
      {"measurement": "time to recovery from sedation and ptosis", "setting": "[2]; oral, 300 and 1000 mg/kg", "result": "≤ 3", "unit": "h"},
      {"measurement": "deaths", "setting": "[2]; oral, 300 and 1000 mg/kg, 24-hour observation", "result": "no test animals of either group were killed"},
      {"measurement": "sedation and ptosis", "setting": "[2]; oral, 300 and 1000 mg/kg", "result": "observed on half number of the test animals"},
      {"measurement": "Inhibition rate of lipid peroxide formation", "setting": "[1]", "result": 97.9, "unit": "%"}
    ]},
    {"compound": "CCCCCCCCCCCCOc1ccc(C2=C(O)CN(CC(C)C)C2=O)cc1", "note": "[Compound 4-c]", "values": [
      {"measurement": "Inhibition rate of lipid peroxide formation", "setting": "[1]", "result": 100, "unit": "%"}
    ]},
    {"compound": "CCCCCCCCCCCCOc1ccc(C2=C(O)CN(CCCCCCCCCCCC)C2=O)cc1", "note": "[Compound 4-d]", "values": [
      {"measurement": "Inhibition rate of lipid peroxide formation", "setting": "[1]", "result": 100, "unit": "%"}
    ]},
    {"compound": "CCCCCCCCCCCCOc1ccc(C2=C(O)CN(c3ccccc3)C2=O)cc1", "note": "[Compound 4-e]", "values": [
      {"measurement": "Inhibition rate of lipid peroxide formation", "setting": "[1]", "result": 100, "unit": "%"}
    ]},
    {"compound": "CCCCCCCCCCCCOc1ccc(C2=C(O)CN(Cc3ccccc3)C2=O)cc1", "note": "[Compound 4-f]", "values": [
      {"measurement": "Inhibition rate of lipid peroxide formation", "setting": "[1]", "result": 75.5, "unit": "%"}
    ]},
    {"compound": "CCCCCCCCCCCCOc1ccc(C2=C(O)CN(CCc3ccccc3)C2=O)cc1", "note": "[Compound 4-g]", "values": [
      {"measurement": "Inhibition rate of lipid peroxide formation", "setting": "[1]", "result": 100, "unit": "%"}
    ]},
    {"compound": "CCCCCCCCCCCCOc1ccc(C2=C(O)CN(CCCc3ccccc3)C2=O)cc1", "note": "[Compound 4-h]", "values": [
      {"measurement": "Inhibition rate of lipid peroxide formation", "setting": "[1]", "result": 100, "unit": "%"}
    ]},
    {"compound": "CCCCCCCCCCCCOc1ccc(C2=C(O)CN(Cc3ccsc3)C2=O)cc1", "note": "[Compound 4-i]", "values": [
      {"measurement": "Inhibition rate of lipid peroxide formation", "setting": "[1]", "result": 89.4, "unit": "%"}
    ]},
    {"compound": "CCCCCCCCCCCCOc1ccc(C2=C(O)CN(Cc3ccc(C(=O)OC)cc3)C2=O)cc1", "note": "[Compound 4-j]", "values": [
      {"measurement": "Inhibition rate of lipid peroxide formation", "setting": "[1]", "result": 52.8, "unit": "%"}
    ]},
    {"compound": "CCCCCCCCCCCCOc1ccc(C2=C(O)CN(Cc3ccc(C(=O)O)cc3)C2=O)cc1", "note": "[Compound 4-k]", "values": [
      {"measurement": "Inhibition rate of lipid peroxide formation", "setting": "[1]", "result": 63.8, "unit": "%"}
    ]},
    {"compound": "CCCCCCCCCCCCOc1ccc(C2=C(O)CN(Cc3cc(OC)c(OC)c(OC)c3)C2=O)cc1", "note": "[Compound 4-l]", "values": [
      {"measurement": "Extrasystole", "setting": "[3]; 3 mg/Kg", "result": "5.4 ± 1.1", "unit": "times/min."},
      {"measurement": "Ventricular fibrillation, incidence", "setting": "[3]; 3 mg/Kg", "result": "0.8 ± 0.4"},
      {"measurement": "Ventricular tachycardia, incidence", "setting": "[3]; 3 mg/Kg", "result": "3.5 ± 0.8"},
      {"measurement": "Ventricular fibrillation, duration", "setting": "[3]; 3 mg/Kg", "result": "1.7 ± 1.2", "unit": "s"},
      {"measurement": "Ventricular tachycardia, duration", "setting": "[3]; 3 mg/Kg", "result": "7.1 ± 2.2", "unit": "s"},
      {"measurement": "Mortality", "setting": "[3]; 3 mg/Kg", "result": "0/8"},
      {"measurement": "mortality due to VF (in words)", "setting": "[3]", "result": "low"},
      {"measurement": "occurrence of arrhythmia (in words)", "setting": "[3]", "result": "suppressed remarkably"},
      {"measurement": "period of time during which arrhythmia lasted (in words)", "setting": "[3]", "result": "shortened"},
      {"measurement": "frequency of occasional PVCs (in words)", "setting": "[3]", "result": "significantly less"},
      {"measurement": "deaths", "setting": "[2]; mouse, in vivo", "result": "no test animals of either group were killed"},
      {"measurement": "time to recovery from sedation and ptosis", "setting": "[2]; oral, 300 and 1000 mg/kg", "result": "≤ 3", "unit": "h"},
      {"measurement": "sedation and ptosis", "setting": "[2]; oral, 300 and 1000 mg/kg", "result": "observed on half number of the test animals"},
      {"measurement": "Inhibition rate of lipid peroxide formation", "setting": "[1]", "result": 96.7, "unit": "%"}
    ]},
    {"compound": "CCCCCCCCCCCCOc1ccc(C2=C(O)CN(Cc3c(C)c(OC)c(C)c(C)c3OC)C2=O)cc1", "note": "[Compound 4-m]", "values": [
      {"measurement": "Inhibition rate of lipid peroxide formation", "setting": "[1]", "result": 100, "unit": "%"}
    ]},
    {"compound": "CCCCCCCCCCCCOc1ccc(C2=C(O)CN(Cc3ccc(Cl)cc3)C2=O)cc1", "note": "[Compound 4-n]", "values": [
      {"measurement": "Inhibition rate of lipid peroxide formation", "setting": "[1]", "result": 100, "unit": "%"}
    ]},
    {"compound": "CCCCCCCCCCCCCCCCCCOC1=C(O)CN(Cc2cc(OC)c(OC)c(OC)c2)C1=O", "note": "[Compound 4-p]", "values": [
      {"measurement": "Extrasystole", "setting": "[3]; 10 mg/Kg", "result": "3.3 ± 0.7", "unit": "times/min."},
      {"measurement": "Ventricular fibrillation, incidence", "setting": "[3]; 10 mg/Kg", "result": "0.9 ± 0.3"},
      {"measurement": "Ventricular tachycardia, incidence", "setting": "[3]; 10 mg/Kg", "result": "4.1 ± 1.2"},
      {"measurement": "Ventricular fibrillation, duration", "setting": "[3]; 10 mg/Kg", "result": "2.1 ± 1.3", "unit": "s"},
      {"measurement": "Ventricular tachycardia, duration", "setting": "[3]; 10 mg/Kg", "result": "7.3 ± 2.4", "unit": "s"},
      {"measurement": "Mortality", "setting": "[3]; 10 mg/Kg", "result": "0/9"},
      {"measurement": "mortality due to VF (in words)", "setting": "[3]", "result": "low"},
      {"measurement": "occurrence of arrhythmia (in words)", "setting": "[3]", "result": "suppressed remarkably"},
      {"measurement": "period of time during which arrhythmia lasted (in words)", "setting": "[3]", "result": "shortened"},
      {"measurement": "frequency of occasional PVCs (in words)", "setting": "[3]", "result": "significantly less"}
    ]},
    {"compound": "O=C1O[C@H]([C@@H](O)CO)C(O)=C1O", "note": "[Vitamin C, reference compound]", "values": [
      {"measurement": "Extrasystole", "setting": "[3]; 50 mg/kg", "result": "11.0 ± 0.8", "unit": "times/min."},
      {"measurement": "Ventricular fibrillation, incidence", "setting": "[3]; 50 mg/kg", "result": "5.4 ± 0.8"},
      {"measurement": "Ventricular tachycardia, incidence", "setting": "[3]; 50 mg/kg", "result": "9.5 ± 1.8"},
      {"measurement": "Ventricular fibrillation, duration", "setting": "[3]; 50 mg/kg", "result": "74.1 ± 36.0", "unit": "s"},
      {"measurement": "Ventricular tachycardia, duration", "setting": "[3]; 50 mg/kg", "result": "12.0 ± 2.9", "unit": "s"},
      {"measurement": "Mortality", "setting": "[3]; 50 mg/kg", "result": "1/12"},
      {"measurement": "effect on arrhythmia (in words)", "setting": "[3]; 50 mg/kg", "result": "no significant effect"},
      {"measurement": "Inhibition rate of lipid peroxide formation", "setting": "[1]", "result": -71.6, "unit": "%"}
    ]},
    {"compound": "Vitamin E [reference compound]", "values": [
      {"measurement": "Extrasystole", "setting": "[3]; 50 mg/kg", "result": "7.0 ± 4.1", "unit": "times/min."},
      {"measurement": "Ventricular fibrillation, incidence", "setting": "[3]; 50 mg/kg", "result": "2.0 ± 0.7"},
      {"measurement": "Ventricular tachycardia, incidence", "setting": "[3]; 50 mg/kg", "result": "3.7 ± 1.5"},
      {"measurement": "Ventricular fibrillation, duration", "setting": "[3]; 50 mg/kg", "result": "43.4 ± 36.0", "unit": "s"},
      {"measurement": "Ventricular tachycardia, duration", "setting": "[3]; 50 mg/kg", "result": "22.3 ± 9.7", "unit": "s"},
      {"measurement": "Mortality", "setting": "[3]; 50 mg/kg", "result": "1/10"},
      {"measurement": "effect on arrhythmia (in words)", "setting": "[3]; 50 mg/kg", "result": "no significant effect"},
      {"measurement": "Inhibition rate of lipid peroxide formation", "setting": "[1]", "result": 44.9, "unit": "%"}
    ]}
  ]
}
